The source of these data is patent US20110038796A1, “Method of Nuclear Medical Photography Using Dual-Isotopes” (ATOMIC ENERGY COUNCIL-INSTITUTE OF NUCLEAR ENERGY RESEARCH, priority 2009, published 2011).

Each structure is given as a SMILES string. Counter-ions that a name gives are not always drawn.

The target in experiment [1] is dopamine transporter (Homo sapiens, UniProt Q01959). The settings on record: cited from earlier work.
Experiment [2] has as its system dopamine transporter. Put plainly: SPECT with [^99mTc]TRODAT-1 (single-isotope or dual-isotopes), specific uptake ratio in striatum. The class given is in vivo, Macaca Cyclopis. On the procedure:
(§1) Please refer to FIG. 1, which is a flow view showing a preferred embodiment according to the present disclosure. As shown in the figure, the present disclosure is a method of nuclear medical photography using dual-isotopes, where effect of using dual isotopes on diagnosing anomalies of dopamine and serotonin in primate's brain is evaluated. The present disclosure comprises the following steps: (a) Obtaining control group 11: A control group is obtained, comprising at least one first individual applied with an imaging agent of single-isotope of [^99mTc]TRODAT-1 for dopamine transporter; at least one second individual applied with an imaging agent of single-isotope of [^123I]ADAM for serotonin transporter; and at least one third individual applied with imaging agents of dual-isotopes of [^99mTc]TRODAT-1 and [^123I]ADAM. Therein, the individuals are non-human primates, like Macaca Cyclopis.
(§2) (b) Taking photos for control group 12: Photos of the first to the third individuals in the control group are taken through single photon emission computed tomography (SPECT). Therein, on taking the photo of the first individual applied with the single-isotope of [^99mTc]TRODAT-1, 90 mg/ml of KClO4 is applied to the first individual at first; and, then, after 20 minutes, 740 MBq (20 mCi) of [^99mTc]TRODAT-1 is injected from intravenous. After [^99mTc]TRODAT-1 is injected, a SPECT device equipped with dual-headed gamma cameras (Hawkeye, Millennium VG, General Elecral Medical System, Milwaukee, Wis. USA) coordinated with fan-beam collimators is used to take photos, where 15 dynamic sequence of brain images are taken during 30 minutes (2 min/frame). Therein, an energy window is set between 126 Kev and 154 Kev; data of 128×128 pixel-matrice are fetched; each photo are enlarged for 1.6 times; a photo is taken for each 3° from 360°; and, each of the two detectors is responsible for taking photos for 180°. After data are collected and processed through Metz filter with attenuation calibration, three three-dimensional (3D) photos of coronal, sagittal and transaxial sections are formed. On taking the photo of the second individual applied with the single-isotope of [^123I]ADAM, 185 MBq (5 mCi) of [^123I]ADAM is injected from intravenous; and, an energy window is set between 143 Kev and 175 Kev. On taking the photo of the third individual applied with the dual-isotopes, 90 mg/ml of KClO4 is applied to the […] at first; and, after 20 minutes, 740 MBq (20 mCi) of [^99mTc]TRODAT-1 and 185 MBq (5 mCi) of [^123I]ADAM are injected from intravenous almost simultaneously. Therein, an energy window for [^99mTc]TRODAT-1 is set between 129 Kev and 151 Kev and another energy window for [^123I]ADAM is set between 159 Kev and 175 Kev.
(§3) (c) Analyzing photos of control group 13: Magnetic resonance imaging (MRI) photos of the first to the third individuals are taken to provide reference information for the following analysis:
(§4) (c3) Analysis on dual-isotopes: The photo of the third individual applied with the dual-isotopes of [^123I]ADAM and [^99mTc]TRODAT-1 obtained in step (b) are processed through visual interpretation to figure out an SUR of [^99mTc]TRODAT-1 in striatum and an SUR of [^123I]ADAM in midbrain, thalamus, striatum and frontal cortex.

The next experiment concerns serotonin transporter. Put plainly: SPECT with [^123I]ADAM (single-isotope or dual-isotopes), specific uptake ratio in brain regions. The experiment is classed as in vivo, Macaca Cyclopis. On the procedure:
as §1, §2, §3
(c1) Analysis on [^123I]ADAM: The photo of the […] individual applied with the single-isotope of [^123I]ADAM obtained in step (b) are processed through visual interpretation to pick out regions of interest (ROI) abundant in serotonin transporter, like midbrain, thalamus, striatum and frontal cortex; and a region lack of serotonin transporter, like cerebellum, is set as background. Mean counts per pixel (MCPP) of the ROIs are deducted with MCPPs of the background and then are divided by the MCPPs of the background to figure out a specific uptake ratios (SUR) of the single-isotope of [^123I]ADAM.
as §4

The mark [3] stands for this setting: 180 to 210 minutes after injection.

Chain of dopamine transporter (Homo sapiens, UniProt Q01959) (Q01959 whole entry): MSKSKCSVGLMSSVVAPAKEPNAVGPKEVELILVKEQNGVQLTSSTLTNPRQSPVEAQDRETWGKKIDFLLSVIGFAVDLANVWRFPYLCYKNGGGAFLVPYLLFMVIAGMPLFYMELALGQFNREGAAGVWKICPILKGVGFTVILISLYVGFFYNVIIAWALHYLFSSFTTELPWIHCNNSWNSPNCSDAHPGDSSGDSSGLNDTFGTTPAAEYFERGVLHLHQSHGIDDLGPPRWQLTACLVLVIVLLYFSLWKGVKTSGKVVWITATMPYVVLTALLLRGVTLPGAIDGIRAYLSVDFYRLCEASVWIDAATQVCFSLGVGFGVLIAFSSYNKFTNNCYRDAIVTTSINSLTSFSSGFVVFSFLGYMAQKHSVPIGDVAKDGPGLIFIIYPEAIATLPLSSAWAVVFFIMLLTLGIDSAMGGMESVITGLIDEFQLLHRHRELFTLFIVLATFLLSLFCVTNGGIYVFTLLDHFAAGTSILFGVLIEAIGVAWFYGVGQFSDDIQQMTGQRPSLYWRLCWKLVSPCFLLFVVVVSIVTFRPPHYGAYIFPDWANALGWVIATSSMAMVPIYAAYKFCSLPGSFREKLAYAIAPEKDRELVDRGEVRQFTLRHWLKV

For the compound `CN1[C@H]2CC[C@@H]1[C@@H](CN(CC[S-])CC[N-]CC[S-])[C@@H](c1ccc(Cl)cc1)C2.[O]=[99Tc+4]` [[^99mTc]TRODAT-1], the “time to reach the highest binding level after injection” value on dopamine transporter [1] was “within two hours”. In addition, the “[^99mTc]TRODAT-1 SUR of striatum, single-isotope versus dual-isotopes” value with dopamine transporter [2] (setting [3]) is “no big difference”.

In the case of `CN(C)Cc1ccccc1Sc1ccc([123I])cc1N` [[^123I]ADAM], the “[^123I]ADAM photos, single-isotope versus dual-isotopes” value in the experiment with serotonin transporter (setting [3]) is reported as “no big difference”. The “binding of [^123I]ADAM in brain regions (SPECT photos)” value in the experiment on serotonin transporter (180 to 210 minutes after injection, midbrain, thalamus and striatum, single-isotope or dual-isotopes) is “bound to regions abundant in serotonin transporter”. In the experiment with serotonin transporter (striatum, thalamus, midbrain and frontal cortex), the “[^123I]ADAM SURs, single-isotope versus dual-isotopes” value is recorded as “no big difference”.

Turning to `CNCCC(Oc1ccc(C(F)(F)F)cc1)c1ccccc1` (stereo not drawn) [fluoxetine], the “[^99mTc]TRODAT-1 SURs after pretreatment with fluoxetine” value in the experiment with dopamine transporter [2] (dual-isotopes, 180 to 210 minutes after injection, pretreated with fluoxetine for 16 hours) is recorded as “no big changes”. In the experiment on dopamine transporter [2] (pretreated with fluoxetine for 16 hours), the “uptakes of [^99mTc]TRODAT-1 of striatum after pretreatment with fluoxetine versus not pretreated (conclusion)” value is recorded as “no big difference”.

Turning to `COC(=O)C(c1ccccc1)C1CCCCN1` (stereo not drawn) [methylphenidate HCl], the “uptakes of [^99mTc]TRODAT-1 of striatum after pretreatment with methylphenidate HCl (conclusion)” value with dopamine transporter [2] (dual-isotopes) is “obviously reduced”. The “[^99mTc]TRODAT-1 SURs after pretreatment with methylphenidate HCl” value with dopamine transporter [2] (dual-isotopes, 180 to 210 minutes after injection, methylphenidate HCl 1 mg/kg 10 minutes before) is given as “greatly lowered”. In addition, in the experiment with serotonin transporter (midbrain, striatum, thalamus and frontal cortex, dual-isotopes, 180 to 210 minutes after injection, methylphenidate HCl 1 mg/kg), the “uptakes of [^123I]ADAM after pretreatment with methylphenidate HCl versus not pretreated” value is listed as “no big difference”. In addition, the “specific uptakes of [^123I]ADAM after pretreatment with methylphenidate HCl versus not pretreated (conclusion)” value in the experiment with serotonin transporter (midbrain, thalamus, striatum and frontal cortex) is “no big changes”. Moreover, the “[^123I]ADAM SURs after pretreatment with methylphenidate HCl” value in the experiment on serotonin transporter (striatum, thalamus and midbrain, dual-isotopes, methylphenidate HCl 1 mg/kg) is “no big changes”.
